These results are taken from patent EP0153845A2, “CRF analogs” (THE SALK INSTITUTE FOR BIOLOGICAL STUDIES, priority 1984, dated 1985).

Square brackets hold non-standard residues; d marks the D form. Ends that are not written are not given here. Peptide text beside a SMILES is read from it. Nle = CCCC[C@H](N)C(=O)O; Orn = NCCC[C@H](N)C(=O)O

Assay [1] concerns the target T1, cultured rat pituitary cells (Rattus norvegicus, UniProt P35353).
T1 sequence (P35353 24-415): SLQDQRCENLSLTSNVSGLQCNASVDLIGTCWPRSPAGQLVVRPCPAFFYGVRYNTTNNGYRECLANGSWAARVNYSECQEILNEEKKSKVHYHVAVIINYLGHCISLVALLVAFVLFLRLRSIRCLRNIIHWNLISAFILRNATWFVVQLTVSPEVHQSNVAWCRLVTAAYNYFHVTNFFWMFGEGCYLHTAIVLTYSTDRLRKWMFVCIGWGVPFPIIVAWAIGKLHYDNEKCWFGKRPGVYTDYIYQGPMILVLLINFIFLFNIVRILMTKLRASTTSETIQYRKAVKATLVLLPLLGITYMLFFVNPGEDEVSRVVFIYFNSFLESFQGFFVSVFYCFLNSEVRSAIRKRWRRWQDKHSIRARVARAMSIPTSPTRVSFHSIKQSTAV
Description: Stimulation of ACTH and β-endorphin secretion by cultured rat pituitary cells (general procedure of Example III). Format: cell-based. The conditions noted are these: for secretion of ACTH and β-END-LI: general procedure of Example III. The method, then: The synthetic peptide AHC and oCRF were examined for their effects on the secretion of ACTH and B-endorphin in vitro and was also in vivo. The potency of synthetic oCRF to stimulate the secretion of ACTH and β-endorphin by cultured rat pituitary cells was measured using the procedure as generally set forth in Endocrinology, 91, 562 (1972). […] In.vivo testing is carried out using the general procedure set forth in C. Rivier et al., Science, 218, 377 (1982).

The nature of assay [2]: Lowering of blood pressure, in vivo testing by the general procedure of Example III.

Consider “SQEPPISLDLTFHLLREVLEMA[Orn]AEQLAEQAHSNRKLLEII-NH2 [[Gln^2, Orn^23, Glu^29, Leu^38]-rCRF]”, for which the “secretion of ACTH and β-END-LI” value in assay [1] is on record as “stimulates”. Moreover, the “lowering of blood pressure” value in assay [2] is “very significant lowering of blood pressure”.

As to “Ac-PPISLDLTFHLLREVLEMARAEQLAEQAHSNRKYMEEI-NH2”, the “secretion of ACTH and β-END-LI” value in assay [1] is given as “stimulates”. In addition, the “lowering of blood pressure” value in assay [2] is on record as “very significant lowering of blood pressure to a greater extent than rCRF”. “H-SQEPPISLDLTFHLLREVLEMTRADQLAQQAHSNRRLLDIA-NH2 [[Arg^23,36]-oCRF]”: the “lowering of blood pressure” value in assay [2] is given as “very significant lowering of blood pressure”. For the compound “H-SQEPPISLDLTFHLLREMLEMAKAEQEAEQAALNRLLLEEA-NH2 [AHC]”, the “secretory response to maximal concentrations” value in assay [1] (maximal (1-5 nM) concentrations) is “at a plateau level”. `CCCC[C@H](NC(=O)[C@H](CCC(=O)O)NC(=O)[C@H](CC(C)C)NC(=O)[C@H](CCCC)NC(=O)[C@H](CCC(=O)O)NC(=O)[C@H](CCCNC(=N)N)NC(=O)[C@H](CC(C)C)NC(=O)[C@H](CC(C)C)NC(=O)[C@H](Cc1c[nH]cn1)NC(=O)[C@H](Cc1ccccc1)NC(=O)[C@@H](NC(=O)[C@H](CC(C)C)NC(=O)[C@H](CC(=O)O)NC(=O)[C@H](CC(C)C)NC(=O)[C@H](CO)NC(=O)[C@@H](NC(=O)[C@@H]1CCCN1C(=O)[C@H]1CCCN1)[C@@H](C)CC)[C@@H](C)O)C(=O)N[C@@H](C)C(=O)N[C@@H](CCCCN)C(=O)N[C@@H](C)C(=O)N[C@@H](CCC(=O)O)C(=O)N[C@@H](CCC(N)=O)C(=O)N[C@@H](CCC(=O)O)C(=O)N[C@@H](C)C(=O)N[C@@H](CCC(=O)O)C(=O)N[C@@H](CCC(N)=O)C(=O)N[C@@H](C)C(=O)N[C@@H](C)C(=O)N[C@@H](CC(C)C)C(=O)N[C@@H](CC(N)=O)C(=O)N[C@@H](CCCNC(=N)N)C(=O)N[C@@H](CC(C)C)C(=O)N[C@@H](CC(C)C)C(=O)N[C@@H](CC(C)C)C(=O)N[C@@H](CCC(=O)O)C(=O)N[C@@H](CCC(=O)O)C(=O)N[C@@H](C)C(N)=O` [[D-Pro^4, Nle^18,21]-AHC(4-41)] (H-[dP]PISLDLTFHLLRE[Nle]LE[Nle]AKAEQEAEQAALNRLLLEEA-NH2): the “lowering of blood pressure” value in assay [2] is “very significant lowering of blood pressure”. As to `CCCC[C@H](NC(=O)[C@H](CCC(=O)O)NC(=O)[C@H](CC(C)C)NC(=O)[C@H](CCCC)NC(=O)[C@H](CCC(=O)O)NC(=O)[C@H](CCCNC(=N)N)NC(=O)[C@H](CC(C)C)NC(=O)[C@H](CC(C)C)NC(=O)[C@H](Cc1c[nH]cn1)NC(=O)[C@H](Cc1ccccc1)NC(=O)[C@@H](NC(=O)[C@H](CC(C)C)NC(=O)[C@H](CC(=O)O)NC(=O)[C@H](CC(C)C)NC(=O)[C@H](CO)NC(=O)[C@@H](NC(=O)[C@@H]1CCCN1C(=O)[C@H]1CCCN1C(=O)[C@H](N)Cc1ccc(O)cc1)[C@@H](C)CC)[C@@H](C)O)C(=O)N[C@@H](C)C(=O)N[C@@H](CCCCN)C(=O)N[C@@H](C)C(=O)N[C@@H](CCC(=O)O)C(=O)N[C@@H](CCC(N)=O)C(=O)N[C@@H](CCC(=O)O)C(=O)N[C@@H](C)C(=O)N[C@@H](CCC(=O)O)C(=O)N[C@@H](CCC(N)=O)C(=O)N[C@@H](C)C(=O)N[C@@H](C)C(=O)N[C@@H](CC(C)C)C(=O)N[C@@H](CC(N)=O)C(=O)N[C@@H](CCCNC(=N)N)C(=O)N[C@@H](CC(C)C)C(=O)N[C@@H](CC(C)C)C(=O)N[C@@H](CC(C)C)C(=O)N[C@@H](CCC(=O)O)C(=O)N[C@@H](CCC(=O)O)C(=O)N[C@@H](C)C(N)=O` [[D-Tyr^3, D-Pro^4, Nle^18,21]-AHC(3-41)] (H-[dY][dP]PISLDLTFHLLRE[Nle]LE[Nle]AKAEQEAEQAALNRLLLEEA-NH2), the “lowering of blood pressure” value in assay [2] was “very significant lowering of blood pressure”.
